In patent US9663508B2, “Biaryl acyl-sulfonamide compounds as sodium channel inhibitors” (AMGEN INC., priority 2013, dated 2017):

biological target: human Nav1.7 (Homo sapiens (Human), UniProt Q15858); assay: Nav 1.7 in vitro PatchXpress (PX) assay; format: cell-based
Sequence (Q15858 whole entry): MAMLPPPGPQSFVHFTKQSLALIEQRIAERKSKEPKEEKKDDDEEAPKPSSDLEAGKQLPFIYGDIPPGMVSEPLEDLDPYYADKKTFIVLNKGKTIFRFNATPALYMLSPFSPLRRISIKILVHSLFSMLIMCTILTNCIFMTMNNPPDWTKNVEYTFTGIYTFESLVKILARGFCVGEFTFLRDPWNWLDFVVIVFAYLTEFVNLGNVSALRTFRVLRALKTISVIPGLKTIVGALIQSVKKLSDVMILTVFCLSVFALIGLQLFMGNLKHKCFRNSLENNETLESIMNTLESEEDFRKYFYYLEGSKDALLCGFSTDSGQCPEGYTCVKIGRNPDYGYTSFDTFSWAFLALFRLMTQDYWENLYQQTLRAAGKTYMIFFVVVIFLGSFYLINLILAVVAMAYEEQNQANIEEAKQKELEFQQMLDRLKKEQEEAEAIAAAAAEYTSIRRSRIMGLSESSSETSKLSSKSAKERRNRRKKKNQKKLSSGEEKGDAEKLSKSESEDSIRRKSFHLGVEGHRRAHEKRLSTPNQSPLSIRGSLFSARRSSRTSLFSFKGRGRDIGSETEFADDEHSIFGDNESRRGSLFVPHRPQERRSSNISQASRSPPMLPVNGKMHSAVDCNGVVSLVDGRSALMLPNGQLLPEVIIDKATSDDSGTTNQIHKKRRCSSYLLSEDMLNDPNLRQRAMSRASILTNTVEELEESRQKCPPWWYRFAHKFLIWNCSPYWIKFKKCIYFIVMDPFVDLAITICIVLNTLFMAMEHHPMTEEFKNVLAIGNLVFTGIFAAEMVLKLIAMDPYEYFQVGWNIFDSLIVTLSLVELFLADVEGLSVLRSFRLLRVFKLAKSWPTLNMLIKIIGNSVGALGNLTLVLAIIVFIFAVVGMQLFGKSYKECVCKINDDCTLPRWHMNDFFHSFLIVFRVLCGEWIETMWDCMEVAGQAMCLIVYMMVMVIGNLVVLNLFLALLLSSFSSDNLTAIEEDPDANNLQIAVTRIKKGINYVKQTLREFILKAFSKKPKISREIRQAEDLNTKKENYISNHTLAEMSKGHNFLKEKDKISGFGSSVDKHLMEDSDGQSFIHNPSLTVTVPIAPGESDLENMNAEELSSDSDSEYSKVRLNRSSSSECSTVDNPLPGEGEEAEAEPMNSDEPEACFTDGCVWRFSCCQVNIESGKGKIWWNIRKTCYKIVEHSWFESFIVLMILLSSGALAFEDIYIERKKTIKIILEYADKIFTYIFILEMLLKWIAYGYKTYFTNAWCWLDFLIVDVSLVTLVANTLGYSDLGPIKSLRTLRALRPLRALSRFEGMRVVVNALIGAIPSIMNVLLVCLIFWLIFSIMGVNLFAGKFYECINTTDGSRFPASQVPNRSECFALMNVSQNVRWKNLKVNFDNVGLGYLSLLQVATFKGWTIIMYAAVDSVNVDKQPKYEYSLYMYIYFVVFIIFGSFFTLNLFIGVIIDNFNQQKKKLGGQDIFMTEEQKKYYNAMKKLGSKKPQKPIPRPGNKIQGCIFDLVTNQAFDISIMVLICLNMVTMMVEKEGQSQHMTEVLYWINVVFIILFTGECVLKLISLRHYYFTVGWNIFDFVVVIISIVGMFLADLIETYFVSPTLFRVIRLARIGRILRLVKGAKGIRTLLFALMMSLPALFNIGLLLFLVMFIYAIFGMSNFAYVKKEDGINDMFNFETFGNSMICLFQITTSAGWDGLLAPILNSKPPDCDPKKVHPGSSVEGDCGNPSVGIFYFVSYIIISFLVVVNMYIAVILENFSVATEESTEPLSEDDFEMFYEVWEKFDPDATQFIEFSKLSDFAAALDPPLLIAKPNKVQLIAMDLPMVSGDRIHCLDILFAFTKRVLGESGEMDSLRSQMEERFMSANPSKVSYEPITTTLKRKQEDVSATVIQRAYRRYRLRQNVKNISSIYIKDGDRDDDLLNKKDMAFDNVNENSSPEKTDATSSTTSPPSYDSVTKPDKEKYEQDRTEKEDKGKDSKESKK

| SMILES | IC50 [nM] |
| --- | --- |
| COc1cc(C(=O)NS(C)(=O)=O)ccc1-c1cnc(Oc2cccc(Cl)c2Cl)c(Cl)c1 [Example 583, 4-(5-Chloro-6-(2,3-Dichlorophenoxy)Pyridin-3-yl)-3-Methoxy-N-(Methylsulfonyl)Benzamide] | 30.5 |
| Cc1cc(Cl)cc(Cl)c1Oc1ncc(-c2cc(F)c(C(=O)NS(C)(=O)=O)cc2Cl)cc1Cl [Example 598, 5-chloro-4-(5-chloro-6-(2,4-dichloro-6-methylphenoxy)-3-pyridinyl)-2-fluoro-N-(methylsulfonyl)benzamide] | 18.4 |
| CS(=O)(=O)NC(=O)c1cc(Cl)c(-c2cnc(OCC3CCCC3)c(Cl)c2)cc1F [Example 600, 5-chloro-4-(5-chloro-6-(cyclopentylmethoxy)-3-pyridinyl)-2-fluoro-N-(methylsulfonyl)benzamide] | 91.9 |
| CCC(CC)Oc1ncc(-c2cc(F)c(C(=O)NS(C)(=O)=O)cc2Cl)cc1Cl [Example 601, 5-chloro-4-(5-chloro-6-(1-ethylpropoxy)-3-pyridinyl)-2-fluoro-N-(methylsulfonyl)benzamide] | 75.4 |
| CC1(Oc2ncc(-c3cc(F)c(C(=O)NS(C)(=O)=O)cc3Cl)cc2Cl)CCC1 [Example 602, 5-chloro-4-(5-chloro-6-((1-methylcyclobutyl)oxy)-3-pyridinyl)-2-fluoro-N-(methylsulfonyl)benzamide] | 100 |
| CC[C@@H](Oc1ncc(-c2cc(F)c(C(=O)NS(C)(=O)=O)cc2C)cc1Cl)c1ccc(F)cc1 [Example 639, 4-(5-chloro-6-(((1R)-1-(4-fluorophenyl)propyl)oxy)-3-pyridinyl)-2-fluoro-5-methyl-N-(methylsulfonyl)benzamide, 4-(5-chloro-6-(((1S)-1-(4-fluorophenyl)propyl)oxy)-3-pyridinyl)-2-fluoro-5-methyl-N-(methylsulfonyl)benzamide] | 70.4 |
| Cc1cc(C(=O)NS(C)(=O)=O)c(F)cc1-c1cnc(N2CCC[C@@H]2c2cccc(C(F)(F)F)c2)c(Cl)c1 [Example 655, 4-(5-chloro-6-((2R)-2-(3-(trifluoromethyl)phenyl)-1-pyrrolidinyl)-3-pyridinyl)-2-fluoro-5-methyl-N-(methylsulfonyl)benzamide, 4-(5-chloro-6-((2S)-2-(3-(trifluoromethyl)phenyl)-1-pyrrolidinyl)-3-pyridinyl)-2-fluoro-5-methyl-N-(methylsulfonyl)benzamide] | 102 |
| Cc1cc(C(=O)NS(C)(=O)=O)c(F)cc1-c1cnc(N2CCC[C@@H]2c2ccccc2C(F)(F)F)c(Cl)c1 [Example 659, 4-(5-chloro-6-((2R)-2-(2-(trifluoromethyl)phenyl)-1-pyrrolidinyl)-3-pyridinyl)-2-fluoro-5-methyl-N-(methylsulfonyl)benzamide, 4-(5-chloro-6-((2S)-2-(2-(trifluoromethyl)phenyl)-1-pyrrolidinyl)-3-pyridinyl)-2-fluoro-5-methyl-N-(methylsulfonyl)benzamide] | 107 |
| Cc1cc(C(=O)NS(C)(=O)=O)c(F)cc1-c1cnc(Oc2ccc(C(F)(F)F)c(F)c2)c(Cl)c1 [Example 671, 4-(5-chloro-6-(3-fluoro-4-(trifluoromethyl)phenoxy)-3-pyridinyl)-2-fluoro-5-methyl-N-(methylsulfonyl)benzamide] | 123 |
| Cc1cc(C(=O)NS(C)(=O)=O)c(F)cc1-c1cnc(OCCC2CC2)c(Cl)c1 [Example 683, 4-(5-chloro-6-(2-cyclopropylethoxy)-3-pyridinyl)-2-fluoro-5-methyl-N-(methylsulfonyl)benzamide] | 111 |
| Cc1cc(C(=O)NS(C)(=O)=O)c(F)cc1-c1cnc(O[C@@H](c2ccccc2)C(F)(F)F)c(Cl)c1 [Example 684, 4-(5-chloro-6-((1S)-2,2,2-trifluoro-1-phenylethoxy)-3-pyridinyl)-2-fluoro-5-methyl-N-(methylsulfonyl)benzamide] | 94.1 |
| Cc1cc(C(=O)NS(C)(=O)=O)c(F)cc1-c1cnc(OC(C(F)(F)F)C(F)(F)F)c(Cl)c1 [Example 686, 4-(5-chloro-6-(2,2,2-trifluoro-1-(trifluoromethyl)ethoxy)-3-pyridinyl)-2-fluoro-5-methyl-N-(methylsulfonyl)benzamide] | 115 |
| Cc1cc(C(=O)NS(C)(=O)=O)c(F)cc1-c1cnc(O[C@@H]2CCCC(C)(C)C2)c(Cl)c1 [Example 687, 4-(5-chloro-6-(((1R)-3,3-dimethylcyclohexyl)oxy)-3-pyridinyl)-2-fluoro-5-methyl-N-(methylsulfonyl)benzamide, 4-(5-chloro-6-(((1S)-3,3-dimethylcyclohexyl)oxy)-3-pyridinyl)-2-fluoro-5-methyl-N-(methylsulfonyl)benzamide] | 75.9 |

Next, values leading:

| IC50 [nM] | SMILES |
| --- | --- |
| 59 | Cc1cc(Cl)cc(Cl)c1Oc1ncc(-c2ccc(C(=O)NS(C)(=O)=O)cc2OC2COC2)cc1Cl [Example 584, 4-(5-chloro-6-(2,4-dichloro-6-methylphenoxy)-3-pyridinyl)-N-(methylsulfonyl)-3-(3-oxetanyloxy)benzamide] |
| 34.6 | Cc1c(Cl)cccc1Oc1ncc(-c2ccc(C(=O)NS(C)(=O)=O)cc2OC(F)F)cc1Cl [Example 586, 4-(5-chloro-6-(3-chloro-2-methylphenoxy)-3-pyridinyl)-3-(difluoromethoxy)-N-(methylsulfonyl)benzamide] |
| 143 | Cc1cc(C(=O)NS(C)(=O)=O)c(F)cc1-c1cnc(Oc2ccc(F)cc2F)c(Cl)c1 [Example 603, 4-(5-chloro-6-(2,4-difluorophenoxy)-3-pyridinyl)-2-fluoro-5-methyl-N-(methylsulfonyl)benzamide] |
| 109 | Cc1cc(C(=O)NS(C)(=O)=O)c(F)cc1-c1cnc(Oc2cccc(F)c2F)c(Cl)c1 [Example 604, 4-(5-chloro-6-(2,3-difluorophenoxy)-3-pyridinyl)-2-fluoro-5-methyl-N-(methylsulfonyl)benzamide] |
| 104 | Cc1cc(C(=O)NS(C)(=O)=O)c(F)cc1-c1cnc(Oc2cccc3c2CCCC3)c(Cl)c1 [Example 610, 4-(5-chloro-6-(5,6,7,8-tetrahydro-1-naphthalenyloxy)-3-pyridinyl)-2-fluoro-5-methyl-N-(methylsulfonyl)benzamide] |
| 108 | Cc1cccc(Oc2ncc(-c3cc(F)c(C(=O)NS(C)(=O)=O)cc3C)cc2Cl)c1 [Example 621, 4-(5-chloro-6-(3-methylphenoxy)-3-pyridinyl)-2-fluoro-5-methyl-N-(methylsulfonyl)benzamide] |
| 83.7 | Cc1cc(C(=O)NS(C)(=O)=O)c(F)cc1-c1cnc(Oc2c(F)ccc(Cl)c2F)c(Cl)c1 [Example 625, 4-(5-chloro-6-(3-chloro-2,6-difluorophenoxy)-3-pyridinyl)-2-fluoro-5-methyl-N-(methylsulfonyl)benzamide] |
| 108 | Cc1cc(C(=O)NS(C)(=O)=O)c(F)cc1-c1cnc(Oc2ccc(F)c(Cl)c2)c(Cl)c1 [Example 626, 4-(5-chloro-6-(3-chloro-4-fluorophenoxy)-3-pyridinyl)-2-fluoro-5-methyl-N-(methylsulfonyl)benzamide] |
| 108 | Cc1cc(C(=O)NS(C)(=O)=O)c(F)cc1-c1cnc(Oc2ccc(OC(C)C)cc2)c(Cl)c1 [Example 663, 4-(5-chloro-6-(4-(1-methylethoxy)phenoxy)-3-pyridinyl)-2-fluoro-5-methyl-N-(methylsulfonyl)benzamide] |
| 58.6 | CC[C@H](Oc1ncc(-c2cc(F)c(C(=O)NS(C)(=O)=O)cc2C)cc1Cl)c1cccc(Cl)c1 [Example 676, 4-(5-chloro-6-(((1S)-1-(3-chlorophenyl)propyl)oxy)-3-pyridinyl)-2-fluoro-5-methyl-N-(methylsulfonyl)benzamide] |
| 83.7 | Cc1cc(C(=O)NS(C)(=O)=O)c(F)cc1-c1cnc(Oc2cccc(C(F)(F)F)c2C)c(Cl)c1 [Example 677, 4-(5-chloro-6-(2-methyl-3-(trifluoromethyl)phenoxy)-3-pyridinyl)-2-fluoro-5-methyl-N-(methylsulfonyl)benzamide] |
| 74.4 | Cc1cc(C(=O)NS(C)(=O)=O)c(F)cc1-c1cnc(Oc2ccc(F)cc2C(F)(F)F)c(Cl)c1 [Example 678, 4-(5-chloro-6-(4-fluoro-2-(trifluoromethyl)phenoxy)-3-pyridinyl)-2-fluoro-5-methyl-N-(methylsulfonyl)benzamide] |
| 87.5 | Cc1cc(C(=O)NS(C)(=O)=O)c(F)cc1-c1cnc(Oc2ccc(Cl)cc2C(F)(F)F)c(Cl)c1 [Example 679, 4-(5-chloro-6-(4-chloro-2-(trifluoromethyl)phenoxy)-3-pyridinyl)-2-fluoro-5-methyl-N-(methylsulfonyl)benzamide] |
| 66.3 | CCc1ccc(C)cc1Oc1ncc(-c2cc(F)c(C(=O)NS(C)(=O)=O)cc2C)cc1Cl [Example 680, 4-(5-chloro-6-(2-ethyl-5-methylphenoxy)-3-pyridinyl)-2-fluoro-5-methyl-N-(methylsulfonyl)benzamide] |
| 55.1 | Cc1cc(C(=O)NS(C)(=O)=O)c(F)cc1-c1cnc(O[C@@H](C)c2cccc3ccccc23)c(Cl)c1 [Example 682, 4-(5-chloro-6-((1S)-1-(1-naphthalenyl)ethoxy)-3-pyridinyl)-2-fluoro-5-methyl-N-(methylsulfonyl)benzamide] |
| 88.1 | CC[C@@H](Oc1ncc(-c2cc(F)c(C(=O)NS(C)(=O)=O)cc2C)cc1Cl)c1ccc(C)cc1 [Example 685, 4-(5-chloro-6-(((1R)-1-(4-methylphenyl)propyl)oxy)-3-pyridinyl)-2-fluoro-5-methyl-N-(methylsulfonyl)benzamide, 4-(5-chloro-6-(((1S)-1-(4-methylphenyl)propyl)oxy)-3-pyridinyl)-2-fluoro-5-methyl-N-(methylsulfonyl)benzamide] |
| 86.3 | Cc1cc(C(=O)NS(C)(=O)=O)c(F)cc1-c1cnc(O[C@H](C)c2ccccc2C(F)(F)F)c(Cl)c1 [Example 688, 4-(5-chloro-6-((1R)-1-(2-(trifluoromethyl)phenyl)ethoxy)-3-pyridinyl)-2-fluoro-5-methyl-N-(methylsulfonyl)benzamide, 4-(5-chloro-6-((1S)-1-(2-(trifluoromethyl)phenyl)ethoxy)-3-pyridinyl)-2-fluoro-5-methyl-N-(methylsulfonyl)benzamide] |
| 46.9 | COc1cc(C(=O)NS(C)(=O)=O)ccc1-c1cnc(Oc2cccc(Cl)c2C)c(C#N)c1 [Example 690, 4-(6-(3-chloro-2-methylphenoxy)-5-cyano-3-pyridinyl)-3-methoxy-N-(methylsulfonyl)benzamide] |
